Results reported in US20130303439A1, “CHIMERIC PEPTIDES INCLUDING A PENETRATING PEPTIDE AND A BINDING DOMAIN OF PP2A CATALYTIC SUBUNIT TO CASPASE-9” (Institut National de la Sante et de la Recherche Medicale …, priority 2010, published 2013).
No end group written: not given here.

Columns and labels:
human caspase-9 = biological target: T1, human caspase-9 (Homo sapiens, UniProt P55211); assay: Caspase-9-binding assay on cellulose-bound peptides containing human PP2Ac sequences; settings: dodecapeptides bound onto cellulose membrane
T1 sequence (P55211 1-416): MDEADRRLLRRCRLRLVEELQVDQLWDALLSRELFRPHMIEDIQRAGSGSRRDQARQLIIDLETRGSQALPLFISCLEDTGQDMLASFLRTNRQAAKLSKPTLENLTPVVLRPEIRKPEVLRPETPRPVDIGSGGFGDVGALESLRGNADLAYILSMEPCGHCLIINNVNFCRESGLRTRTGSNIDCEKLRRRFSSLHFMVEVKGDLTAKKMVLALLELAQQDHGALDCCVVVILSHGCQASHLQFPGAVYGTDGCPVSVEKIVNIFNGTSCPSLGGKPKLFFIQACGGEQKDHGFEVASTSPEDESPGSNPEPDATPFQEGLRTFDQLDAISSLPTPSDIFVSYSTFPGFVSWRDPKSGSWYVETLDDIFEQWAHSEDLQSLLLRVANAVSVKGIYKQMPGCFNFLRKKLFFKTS
Experimental: Overlapping dodecapeptides covering the whole human PP2Ac sequence were prepared by atomated spot synthesis (Abimed, Langerfield, Germany) onto an amino-derived cellulose membrane, as described (Frank and Overwin, 1996 Meth. Mol. Biol. 66, 149-169; Gausepohl et al., 1992 Pept Res, 5, 315-320). The membrane was saturated using 3% BSA and 3% non-fat dry milk, incubated with purified human caspase-9 and after several washing steps, incubates with anti-caspase-9 antibody, followed by PO-conjugated secondary antibody. Positive spots were visualized using the ECL system.
To identify peptides containing PP2Ac sequences able to binding to caspase-9, a series of 150 overlapping dodecapeptides (shift of 2 amino acids) from human PP2Ac (sequence deduced from NCBI, accession number NP_00270601) were bound onto a cellulose membrane and incubated with purified caspase-9.

[1] = Cell penetration / internalization of peptides; format: cell-based
TS1αβ cells = assay: Cell death assay (annexin V / PI flow cytometry); format: cell-based, murine; settings: peptides at 150 μM
Experimental: (§1) An Annexin-V-FITC conjugated kit (Roche) was used for the assessment of outer leaflet exposure of phosphatidylserine (PS) in the plasma membrane of apoptotic cells. Staining was performed according to the manufacturer's instructions. A total of […] cells were analyzed by flow cytometry in a FACSCalibur cytofluometer (BD Biosciences). Necrotic cells were excluded by propidium iodide (PI) staining, and single annexin V positive cells were considered apoptotic. For apoptotic analysis the different peptides were used at 150 μM.
Using flow cytometry detection of annexin V and PI, the inventors analyzed the capacity of DPT-C9 to induce apoptosis in TS1αβ cells cultured in presence of IL-2. In contrast to non penetrating C9 peptide, DPT-C9 induced a 6-fold increase of apoptosis.

PP2Ac = biological target: T2, PP2Ac (Mus musculus, UniProt P63330); assay: Pull down assay of biotinylated peptides with cell lysate, Western blot with PP2Ac antibody; format: binding, murine; settings: cellular extracts from IL-2-stimulated cells
T2 construct: endogenous in cells; host or cells: TS1αβ murine T cell line, IL-2-stimulated, NP-40 lysate
Experimental: Biotinylated peptides were preincubated 2 h at 0-100 μM (in final concentration with lysate) at room temperature with 30 μl of streptavidin-coated immunomagnetic beads (Calbiochem, San Diego Calif.). During this time, […] exponentially growing TS1αβ cells were first washed twice with PBS and then lysed 10 minutes on ice in 400 μl of lysis buffer (50 mM Tris pH7.4, 150 mM NaCl, 20% glycerol, 1% NP-40, 10 mM EDTA, 1 mM PhenylMethylSulfonyl Fluoride, 10 mM NaF, 1 mM orthovanadate, “complete, EDTA-free” protease inhibitor cocktail from Roche).
Lysates were clarified at 13000 g for 10 minutes at 4° C. and were incubated with biotinylated peptides associated with the streptavidin-coated immunomagnetic beads 2 h at 4° C. Biotinylated peptides were pulled down with streptavidin beads and washed two times in 700 μl of lysis buffer on ice. Bound proteins and unbound lysates were then analyzed by SDS-PAGE and Western Blotting using PP1c or PP2Ac antibodies.
To determine the capacity of DPT-C9 to interact with PP2Ac, the inventors performed pull-down experiments using cellular extracts from IL-2-stimulated cells incubated with biotinylated peptides or beads alone.

Daudi cells = assay: Apoptosis assay (Annexin V-FITC), Example 2; format: cell-based, human; settings: FIG. 1: 100 microM, 12 and 24 h, method says 150 mM, compared to control non-treated
Experimental: FIG. 1. Daudi cell line was cultured in RPMI 1640 medium in the presence of DPT-PP2Ah peptide (100 microM). At 12 and 24 h, we analyze the apoptotic effect of the peptide by annexine stainin.
(§2) Annexin V-FITC kit was used for detection of apoptosis and staining was performed according to the manufacturer's instructions. A total of 1×10^5 cells were analyzed by flow cytometry in a FACSCalibur cytometer (BD Biosicences). Necrotic cells were excluded by PI staining and annexin V positive cells were considered apoptotic. The effect of DPT-PP2Ah was compared to untreated control cells or to DPT-C9h-treated cells. Penetrating peptides were used at […]. The shuttle alone (DPT-sh1) was also used as a control.

Jurkat = assay: Cell death assay (annexin V / PI flow cytometry); format: cell-based, human; settings: peptides at 150 μM
Experimental: as §1

HeLa = assay: Cell death assay (annexin V / PI flow cytometry); format: cell-based, human; settings: peptides at 150 μM
Experimental: as §1

Daudi = assay: Cell death assay (annexin V / PI flow cytometry); format: cell-based, human; settings: peptides at 150 μM
Experimental: as §1

CTLL = assay: Cell death assay (annexin V / PI flow cytometry); format: cell-based; settings: murine CTLL; peptides at 150 μM
Experimental: as §1

[2] = tested on: primary cells isolated from xenograft model of lung cancer (LCF25); assay: Apoptosis by annexin staining in primary cells from xenograft model; format: cell-based; settings: 100 microM, 16 h, compared to control non-treated cells
Experimental: (§3) FIG. 2 Cell isolated form xenograft models of lung cancer (LCF25), breast cancer (BC52) and uveal melanoma (KMP41) were cultured in DMEM medium in the absence (control) or in the presence of 100 microM of DPT-PP2Ah peptide. After 16 h of culture, apoptosis was estimated by annexin staining.
as §2

[3] = tested on: primary cells isolated from xenograft model of uveal melanoma (KMP41); assay: as above; format: cell-based; settings: 100 microM, 16 h, compared to control non-treated cells
Experimental: as §3, §2

[4] = tested on: primary cells isolated from xenograft model of breast cancer (BC52); assay: as above; format: cell-based; settings: 100 microM, 16 h, compared to control non-treated cells
Experimental: as §3, §2

[5] = tested on: triple negative breast cancer model BC11; assay: In vivo tumor growth inhibition of primary human breast cancer xenografts; set-up: species or system mice; settings: once daily for 5 weeks
Excerpt: The primary human xenografts were obtained as previously described (Marangoni et al., (2007) Clin Cancer Res 13:3989-3998, de Plater et al., (2010) Br J Cancer 103:1192-1200. Spontaneously growing mammary tumors […] were xenografted into nude immunodeficient mice to allow pharmacological assessments, and maintained from nude mouse to nude mouse serially passages.
For therapeutic experimental assays, 5- to 8-week old Swiss nu/nu female mice received a subcutaneous graft of tumor fragments with a volume of approximately 15 mm^3. Tumors developed at the graft site 2 to 6 weeks later. Mice bearing growing tumors with a volume of 40 to 200 mm^3 were individually identified and randomly assigned to the control or treatment groups (9-10 animals in each group) and treatments were started on day 1. Mice were weighed twice a week. Tumour-bearing mice were sacrificed when the tumor volume reached 2500 mm^3, defined as the ethical limit. Tumor volumes and antitumor activity were evaluated as previously reported (Marangoni et al., (2007) Clin Cancer Res 13:3989-3998).
DPT-PP2Ah peptide diluted in water/glucose (1 to 25 mg/kg) was given by intraperitoneally route 7 days per week.
To evaluate the potential antitumor effect of DPT-PP2Ah, we treated mice bearing the triple negative breast cancer model BC11. […]

[6] = biological target: T3, PP2Ac (catalytic subunit of PP2A) from lysate of IL-2-stimulated murine TS1αβ cells (mouse, UniProt P63330 1-309); assay: pull-down from IL-2-stimulated TS1αβ cell lysate with biotinylated peptide on streptavidin beads, Western blot
T3 construct: Endogenous protein from cell lysate, detected by Western blot with a PP2Ac antibody; It may have been part of a PP2A holoenzyme in the lysate

[7] = biological target: T4, caspase-9 from lysate of murine TS1αβ cells (mouse, UniProt Q8C3Q9 1-454, limits assumed); assay: as above
T4 construct: Endogenous protein in the lysate; also called murine caspase-9; mouse caspase-9
T4 sequence (looked up): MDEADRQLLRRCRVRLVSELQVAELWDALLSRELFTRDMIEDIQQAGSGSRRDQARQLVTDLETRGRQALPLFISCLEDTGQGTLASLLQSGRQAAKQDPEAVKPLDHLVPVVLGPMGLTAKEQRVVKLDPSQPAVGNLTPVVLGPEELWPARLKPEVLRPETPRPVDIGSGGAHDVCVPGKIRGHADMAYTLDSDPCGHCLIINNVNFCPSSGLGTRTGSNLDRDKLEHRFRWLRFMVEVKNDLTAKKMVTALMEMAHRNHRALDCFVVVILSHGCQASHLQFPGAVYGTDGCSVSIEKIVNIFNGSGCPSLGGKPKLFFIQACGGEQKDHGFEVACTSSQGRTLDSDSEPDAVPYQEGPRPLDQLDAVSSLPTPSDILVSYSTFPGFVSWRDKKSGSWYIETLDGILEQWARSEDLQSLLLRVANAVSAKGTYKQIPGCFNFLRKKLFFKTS

T2 sequence (P63330 whole entry): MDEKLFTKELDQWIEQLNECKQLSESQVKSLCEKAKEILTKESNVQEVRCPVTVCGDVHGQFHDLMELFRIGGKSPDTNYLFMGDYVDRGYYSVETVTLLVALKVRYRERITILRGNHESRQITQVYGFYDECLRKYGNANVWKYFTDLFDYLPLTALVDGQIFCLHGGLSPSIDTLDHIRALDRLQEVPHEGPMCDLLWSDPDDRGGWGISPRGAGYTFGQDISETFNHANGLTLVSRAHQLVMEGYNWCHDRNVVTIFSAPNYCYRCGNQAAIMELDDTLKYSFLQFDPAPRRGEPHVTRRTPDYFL
T3 sequence (P63330 whole entry): as above

## DTLDHIRALDRL (Synthetic PP2A peptide) [dodecapeptide from human PP2Ac]
Human caspase-9
  binding to purified caspase-9: bind to purified caspase-9

## HIRALDRLQEVP (Synthetic PP2A peptide) [dodecapeptide from human PP2Ac]
Human caspase-9
  binding to purified caspase-9: bind to purified caspase-9

## LDHIRALDRLQE (Synthetic PP2A peptide) [dodecapeptide from human PP2Ac]
Human caspase-9
  binding to purified caspase-9: bind to purified caspase-9

## LDRLQEVPHEGP (Synthetic PP2A peptide) [dodecapeptide from human PP2Ac]
Human caspase-9
  binding to purified caspase-9: bind to purified caspase-9

## RALDRLQEVPHE (Synthetic PP2A peptide) [dodecapeptide from human PP2Ac]
Human caspase-9
  binding to purified caspase-9: bind to purified caspase-9

## VKKKKIKREIKI [DPT-sh1]
[1]
  Cell penetration: Yes
  internalized: are internalized
TS1αβ cells
  induction of apoptosis / cell death (in words): behaves as negative control
PP2Ac
  interact with PP2Ac: do not interact with PP2Ac

## VKKKKIKREIKI-YVETLDGIFEQWAHSEDL (VKKKKIKREIKIYVETLDGIFEQWAHSEDL; Synthetic human DPT-C9) [DPT-C9h]
Daudi cells
  apoptosis (annexin staining): lower apoptosis
Jurkat
  increase of apoptosis: 5 fold
HeLa
  increase of apoptosis: 5 fold
Daudi
  increase of apoptosis: 5 fold
CTLL
  cell death (in words): unable to cause cell death
TS1αβ cells
  induction of apoptosis / cell death (in words): unable to cause cell death

## VKKKKIKREIKIDTLDHIRALDRLQEVPHEGP (Synthetic DPT-PP2Ah)
Daudi cells
  apoptosis (annexin staining): strongly induces apoptosis
[2]
  apoptosis (annexin staining): induces apoptosis
[3]
  apoptosis (annexin staining): induces apoptosis
[4]
  apoptosis (annexin staining): induces apoptosis
[5]; 1 mg/kg intraperitoneally, relative to 5 mg/kg
  tumor growth inhibition (TGI): lower
[5]; 5 mg/kg intraperitoneally, end of treatment
  tumor growth inhibition (TGI): significant tumor growth inhibition

B1: DPT-C9r (fusion of DPT-sh1 and C9 reverse sequence) (peptide)
peptide: VKKKKIKREIKILDESRAWQELIGDLTEIY
modifications: also: biotinylated, position not given here
notes: Negative control peptide; Used biotinylated in the pull-down
[6]
  binding result: no binding (tested: 0-100 µM peptide)

B2: C9 peptide (mouse caspase-9 aa 401-418, PP2Ac binding domain) (peptide)
peptide: YIETLDGILEQWARSEDL
modifications: also: biotinylated, position not given here
notes: Synthetic, non cell-penetrating peptide; Used biotinylated on streptavidin beads in the pull-down; also called C9m
[7]
  binding result: no binding (tested: 0-100 µM peptide)

B3: DPT-C9 (fusion of DPT-sh1 shuttle and C9 sequence) (peptide)
peptide: VKKKKIKREIKIYIETLDGILEQWARSEDL
modifications: also: biotinylated, position not given here
notes: Used biotinylated in the pull-down
[7]
  binding result: no binding (tested: 0-100 µM peptide)
